ChEMBL document CHEMBL5729078, “Inhibitors of cysteine proteases and methods of use thereof” (2022)

Experiment: Evaluation of Antiviral Activity of Compounds Against Human Coronavirus (HCov) 229E and OC43 in the Cytopathic Effect (CPE) Assays: Compounds were assayed using standard methods against multiple coronaviral strains, including HCoV 229E and OC43 strains.

| Structure (SMILES) | EC50 | IC50 |
| --- | --- | --- |
| CCCOc1cccc2[nH]c(C(=O)N[C@@H](CC(C)C)C(=O)N[C@H](C#N)C[C@@H]3CCNC3=O)cc12 | < 2000 nM | – |
| N#C[C@H](C[C@@H]1CCCNC1=O)NC(=O)[C@H]1CC2(CN1C(=O)c1cc3cccc(Cl)c3[nH]1)CC(F)(F)C2 (single isomer, unassigned) | < 2000 nM | < 2000 nM |
| N#C[C@H](C[C@@H]1CCCNC1=O)NC(=O)[C@@H]1CC2(CCCCC2)CN1C(=O)c1cc2ccc(Cl)cc2[nH]1 (single isomer, unassigned) | < 2000 nM | < 2000 nM |
| COc1cccc2[nH]c(C(=O)N[C@@H](CC3CC3)C(=O)N[C@@]3(C#N)C[C@@H]4CC[C@@H]3[C@H]3C(=O)NC(=O)[C@@H]43)cc12 (single isomer, unassigned; isomer 1) | – | > 30000 nM |
| COc1cccc2[nH]c(C(=O)N3CC4(CCC4)C[C@@H]3C(=O)N[C@H](C#N)C[C@@H]3CCCNC3=O)cc12 (single isomer, unassigned; isomer 2) | < 2000 nM | – |
